From PubChem BioAssay AID330 (DTP/NCI, 2004)
Several values for one entry are separate records, joined by “and”; a condition that tells them apart may be missing. Identical values can stand only once. Toxic doses and inconclusive results are not listed. The calls were made as follows: active = survival T/C of 150% or more; inactive = T/C below 125% in these data.

Test system: P388 leukemia ip, CD2F1 mice, survival T/C
Assay: NCI In Vivo Anticancer Drug Screen. Data for tumor model P388 Leukemia (intraperitoneal) in CD2F1 (CDF1) mice
Details: endpoint: median survival time, higher = longer survival
How it was run: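 Mice carrying the transplanted tumor received test compound or vehicle. Survival was recorded in each group, and the value is the treated-group measurement divided by that of the vehicle-treated control group.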

[1] = dose: 50.0 mg/kg/injection, schedule: Q01DX009 (ip), vehicle: saline with Tween-80
[2] = dose: 50.0 mg/kg/injection, schedule: Q01DX009 (ip), vehicle: saline
[3] = dose: 100.0 mg/kg/injection, schedule: Q01DX009 (ip), vehicle: saline
[4] = dose: 50.0 mg/kg/injection, schedule: Q01DX005 (ip), vehicle: saline with Tween-80
[5] = dose: 100.0 mg/kg/injection, schedule: Q01DX005 (ip), vehicle: saline with Tween-80
[6] = dose: 200.0 mg/kg/injection, schedule: Q01DX005 (ip), vehicle: saline with Tween-80
[7] = dose: 60.0 mg/kg/injection, schedule: Q01DX005 (ip), vehicle: saline with Tween-80
[8] = dose: 50.0 mg/kg/injection, schedule: Q01DX005 (ip), vehicle: Klucel (hydroxypropylcellulose) (HPC)
[9] = dose: 100.0 mg/kg/injection, schedule: Q01DX005 (ip), vehicle: Klucel (hydroxypropylcellulose) (HPC)
[10] = dose: 200.0 mg/kg/injection, schedule: Q01DX005 (ip), vehicle: Klucel (hydroxypropylcellulose) (HPC)

Measured: T/C

O=C1c2cc(I)ccc2NC(O)c2cccn21 (configuration not stated)
inactive: dose: 0.1 mg/kg/injection, schedule: Q01DX005 (ip), vehicle: water 93 % of control | dose: 0.2 mg/kg/injection, schedule: Q01DX005 (ip), vehicle: water 93 % of control | dose: 0.4 mg/kg/injection, schedule: Q01DX005 (ip), vehicle: water 99 % of control | dose: 0.8 mg/kg/injection, schedule: Q01DX005 (ip), vehicle: water 100 % of control | dose: 1.6 mg/kg/injection, schedule: Q01DX005 (ip), vehicle: water 96 % of control | dose: 5.0 mg/kg/injection, schedule: Q01DX005 (ip), vehicle: distilled water + Tween-80 94 % of control | dose: 10.0 mg/kg/injection, schedule: Q01DX005 (ip), vehicle: distilled water + Tween-80 100 % of control | dose: 20.0 mg/kg/injection, schedule: Q01DX005 (ip), vehicle: distilled water + Tween-80 99 % of control | dose: 40.0 mg/kg/injection, schedule: Q01DX005 (ip), vehicle: distilled water + Tween-80 92 % of control | dose: 80.0 mg/kg/injection, schedule: Q01DX005 (ip), vehicle: distilled water + Tween-80 93 % of control

COc1c(Br)cc(Br)cc1/C=C/[N+](=O)[O-]
inactive: [1] 123 % of control

CN1CCC(=C2c3ccccc3CCc3sccc32)CC1
inactive: dose: 12.5 mg/kg/injection, schedule: Q01DX009 (ip), vehicle: saline 103 % of control | dose: 25.0 mg/kg/injection, schedule: Q01DX009 (ip), vehicle: saline 104 % of control | [2] 101 % of control and 103 % of control | [3] 108 % of control

CC(NNC(=S)N1CCCC1)c1cccc[n+]1[O-] (configuration not stated)
inactive: [4] 101 % of control | [5] 100 % of control | [6] 94 % of control

CC(C)Cc1cc(-c2cc(CC(C)C)[nH]n2)n[nH]1
inactive: [7] 106 % of control | dose: 120.0 mg/kg/injection, schedule: Q01DX005 (ip), vehicle: saline with Tween-80 95 % of control | dose: 240.0 mg/kg/injection, schedule: Q01DX005 (ip), vehicle: saline with Tween-80 100 % of control

CN(C)c1ccc(N)c(N)c1
inactive: dose: 3.12 mg/kg/injection, schedule: Q01DX005 (ip), vehicle: saline 99 % of control | dose: 6.25 mg/kg/injection, schedule: Q01DX005 (ip), vehicle: saline 99 % of control | dose: 12.5 mg/kg/injection, schedule: Q01DX005 (ip), vehicle: saline 103 % of control | dose: 25.0 mg/kg/injection, schedule: Q01DX005 (ip), vehicle: saline 105 % of control and 106 % of control | [3] 98 % of control

CC1=C(c2ccccc2)C2(c3ccccc3)OC(c3ccc([N+](=O)[O-])cc3)=NOC2(C)C1 (configuration not stated)
inactive: [1] 93 % of control | dose: 100.0 mg/kg/injection, schedule: Q01DX009 (ip), vehicle: saline with Tween-80 93 % of control | dose: 200.0 mg/kg/injection, schedule: Q01DX009 (ip), vehicle: saline with Tween-80 96 % of control

CN(/N=C(C#N)/C(N)=N/N)c1ccccc1
inactive: dose: 100.0 mg/kg/injection, schedule: Q04DX002 (ip), vehicle: saline with Tween-80 96 % of control | dose: 200.0 mg/kg/injection, schedule: Q04DX002 (ip), vehicle: saline with Tween-80 96 % of control

C=CCNC(=S)NNC(=O)Cc1nc2ccccc2[nH]1
inactive: [8] 98 % of control | [9] 97 % of control | [10] 92 % of control

O=C1c2ccccc2C(=O)N1CC[P+](C1CCCCC1)(C1CCCCC1)C1CCCCC1
inactive: dose: 0.78 mg/kg/injection, schedule: Q01DX009 (ip), vehicle: saline with Tween-80 110 % of control | dose: 1.56 mg/kg/injection, schedule: Q01DX009 (ip), vehicle: saline with Tween-80 112 % of control | dose: 3.13 mg/kg/injection, schedule: Q01DX009 (ip), vehicle: water 97 % of control | dose: 6.25 mg/kg/injection, schedule: Q01DX009 (ip), vehicle: saline with Tween-80 116 % of control | dose: 6.25 mg/kg/injection, schedule: Q01DX009 (ip), vehicle: water 118 % of control | dose: 12.5 mg/kg/injection, schedule: Q01DX009 (ip), vehicle: water 118 % of control | dose: 25.0 mg/kg/injection, schedule: Q01DX009 (ip), vehicle: water 118 % of control | dose: 50.0 mg/kg/injection, schedule: Q01DX009 (ip), vehicle: water 86 % of control

CC(C)(C)C1(C#N)C(=O)N(c2ccc(N3C(=O)C(C#N)(C(C)(C)C)C34c3ccccc3-c3ccccc34)cc2)C12c1ccccc1-c1ccccc12 (configuration not stated)
inactive: dose: 100.0 mg/kg/injection, schedule: Q04DX003 (ip), vehicle: Klucel (hydroxypropylcellulose) (HPC) 93 % of control | dose: 200.0 mg/kg/injection, schedule: Q04DX003 (ip), vehicle: Klucel (hydroxypropylcellulose) (HPC) 93 % of control | dose: 400.0 mg/kg/injection, schedule: Q04DX003 (ip), vehicle: Klucel (hydroxypropylcellulose) (HPC) 91 % of control

CN1c2ccccc2C(C)(C)C12C=Cc1cc(O)ccc1O2 (configuration not stated)
inactive: [2] 93 % of control | [3] 96 % of control | dose: 200.0 mg/kg/injection, schedule: Q01DX009 (ip), vehicle: saline 113 % of control

C=CC(c1ccccc1)C(O)(Cc1ccccc1)Cc1ccccc1 (configuration not stated)
inactive: dose: 6.25 mg/kg/injection, schedule: Q01DX009 (ip), vehicle: DMSO 104 % of control | dose: 12.5 mg/kg/injection, schedule: Q01DX009 (ip), vehicle: DMSO 99 % of control | dose: 25.0 mg/kg/injection, schedule: Q01DX009 (ip), vehicle: DMSO 95 % of control

NC(=S)n1nc(-c2ccccc2)c(N=Nc2ccccc2[N+](=O)[O-])c1-c1ccccc1
inactive: dose: 100.0 mg/kg/injection, schedule: Q04DX002 (ip), vehicle: Klucel (hydroxypropylcellulose) (HPC) 99 % of control | dose: 200.0 mg/kg/injection, schedule: Q04DX002 (ip), vehicle: Klucel (hydroxypropylcellulose) (HPC) 110 % of control | dose: 400.0 mg/kg/injection, schedule: Q04DX002 (ip), vehicle: Klucel (hydroxypropylcellulose) (HPC) 105 % of control

[CH3][Sn]([CH3])([CH3])[Cl]
inactive: dose: 0.19 mg/kg/injection, schedule: Q01DX009 (ip), vehicle: saline 100 % of control | dose: 0.39 mg/kg/injection, schedule: Q01DX009 (ip), vehicle: saline 97 % of control | dose: 0.78 mg/kg/injection, schedule: Q01DX009 (ip), vehicle: saline 101 % of control

CCCCCCC1OCN2CCCCC12 (configuration not stated)
inactive: dose: 50.0 mg/kg/injection, schedule: Q01DX005 (ip), vehicle: saline 105 % of control | dose: 100.0 mg/kg/injection, schedule: Q01DX005 (ip), vehicle: saline 107 % of control | dose: 200.0 mg/kg/injection, schedule: Q01DX005 (ip), vehicle: saline 109 % of control

N=C(N)c1ccc(N=Nc2cc(N=Nc3ccc(C(=N)N)cc3)c(O)cc2O)cc1
inactive: [8] 92 % of control | [9] 92 % of control | [10] 100 % of control

O=C1C2=C(OCO2)C(=O)C2=C1OCO2
inactive: dose: 15.0 mg/kg/injection, schedule: Q01DX005 (ip), vehicle: saline with Tween-80 104 % of control | dose: 30.0 mg/kg/injection, schedule: Q01DX005 (ip), vehicle: saline with Tween-80 101 % of control | [7] 106 % of control

C/C(=N/N=C(N)N)c1cnc(N/N=C(\C)c2cnc(NN)nc2C)nc1C
inactive: dose: 7.5 mg/kg/injection, schedule: Q01DX005 (ip), vehicle: saline 103 % of control | dose: 15.0 mg/kg/injection, schedule: Q01DX005 (ip), vehicle: saline 94 % of control | dose: 30.0 mg/kg/injection, schedule: Q01DX005 (ip), vehicle: saline 97 % of control

CC(CC(C)C1CO1)C(=O)C(C)S(=O)(=O)c1ccccc1 (configuration not stated) (tested in a mixture with another compound)
inactive: [4] 104 % of control | [5] 88 % of control | [6] 102 % of control
